Measured values taken from publication PMC7738205 (Cell Cycle, 2020).
“Also recorded” adds a separate entry of the source.

Key:
[1] = system: human epithelial airway cells; settings: 1 µM dose; cited from earlier work
[2] = system: human bronchial epithelial lining cells; assay: Cytotoxicity in human bronchial epithelial lining cells; format: cell-based
[3] = system: SARS-CoV-2 strain USA-WA1/2020; format: cell-based; settings: dNHBE cells, conversion of 5.55 µM
MA-104 cells = settings: visual or neutral red reads

Row | Compound | toxicity in human epithelial airway cells [1] | observed cytotoxicity at highest dose given ([2]; 30 µM) | average EC90 expressed [3] | cytotoxicity to MA-104 cells (MA-104 cells) | observed cytotoxicity at highest dose given ([2]; 1.66 µM)
1 | CC#C[C@]1(O)CCC2C3CCC4=CC(=O)CCC4=C3[C@@H](c3ccc4c(c3)OCO4)C[C@@]21C (some centres unmarked) [PT150] | absence of toxicity | No cytotoxicity; also recorded: no observed cytotoxicities | 3.13 µg/mL | significant cytotoxicity | 
2 | CCC(CC)COC(=O)[C@H](C)N[P@](=O)(OC[C@H]1O[C@@](C#N)(c2ccc3c(N)ncnn23)[C@H](O)[C@@H]1O)Oc1ccccc1 [Remdesivir, reference compound] |  |  |  |  | no observed cytotoxicities
